Assay results from ChEMBL document CHEMBL3885881, “DrugMatrix”.

Species: Rattus norvegicus
Test: DrugMatrix - Regimen: Daily Repeat
Assay type: toxicity, organism-based, Sprague-Dawley
Design: regimen Daily Repeat, gender Male, age 6-8 weeks
Conditions: in vivo, iv, vehicle 100 % SALINE; for ABSOLUTE BASOPHIL / ABSOLUTE EOSINOPHIL / ABSOLUTE LYMPHOCYTE / ABSOLUTE MONOCYTE / ABSOLUTE SEGMENTED NEUTROPHIL / BASOPHIL / EOSINOPHIL / ERYTHROCYTE COUNT / HEMATOCRIT / HEMOGLOBIN / LEUKOCYTE COUNT / LYMPHOCYTE / MEAN CORPUSCULAR HEMOGLOBIN / MEAN CORPUSCULAR HEMOGLOBIN CONCENTRATION / MEAN CORPUSCULAR VOLUME / MONOCYTE / NEUTROPHIL / NUCLEATED RED BLOOD CELLS / PLATELET COUNT: tissue Blood; for ALANINE AMINOTRANSFERASE / ALBUMIN / ALKALINE PHOSPHATASE / ASPARTATE AMINOTRANSFERASE / BLOOD UREA NITROGEN / CARBON DIOXIDE / CHLORIDE / CHOLESTEROL / CREATINE PHOSPHOKINASE / CREATININE / GLUCOSE / LACTATE DEHYDROGENASE / LIPASE / PHOSPHORUS / POTASSIUM / SODIUM / TOTAL BILIRUBIN / TOTAL PROTEIN / URIC ACID: tissue Plasma
[1] = 0 mg/kg, 72 h, dose level Control, time 3 day
[2] = 0 mg/kg, 120 h, dose level Control, time 5 day
[3] = 10 mg/kg, 72 h, dose level Low, time 3 day

SMILES: O=C(O)P(=O)(O)O [FOSCARNET]
- ABSOLUTE BASOPHIL [1]: 0 CELLS/uL
- ABSOLUTE EOSINOPHIL [1]: 247.67 CELLS/uL
- ABSOLUTE LYMPHOCYTE [1]: 13190.83 CELLS/uL
- ABSOLUTE MONOCYTE [1]: 307.67 CELLS/uL
- ABSOLUTE SEGMENTED NEUTROPHIL [1]: 1220.5 CELLS/uL
- BASOPHIL [1]: 0%
- EOSINOPHIL [1]: 1.67%
- ERYTHROCYTE COUNT [1]: 5.47 x10E6/uL
- HEMATOCRIT [1]: 33.98%
- HEMOGLOBIN [1]: 12.65 G/DL
- LEUKOCYTE COUNT [1]: 14.97 x10E3/uL
- LYMPHOCYTE [1]: 88.17%
- MEAN CORPUSCULAR HEMOGLOBIN [1]: 23.17 pg
- MEAN CORPUSCULAR HEMOGLOBIN CONCENTRATION [1]: 37.23 G/DL
- MEAN CORPUSCULAR VOLUME [1]: 62.25 fL
- MONOCYTE [1]: 2%
- NEUTROPHIL [1]: 8.17%
- NUCLEATED RED BLOOD CELLS [1]: 0 /100WBC
- PLATELET COUNT [1]: 1307.17 x10E3/uL
- ALANINE AMINOTRANSFERASE [1]: 39.67 u/L
- ALBUMIN [1]: 4.08 G/DL
- ALKALINE PHOSPHATASE [1]: 383.17 u/L
- ASPARTATE AMINOTRANSFERASE [1]: 88.83 u/L
- BLOOD UREA NITROGEN [1]: 18.5 mg/dL
- CARBON DIOXIDE [1]: 27.5 mmol/L
- CHLORIDE [1]: 103 MEQ/L
- CHOLESTEROL [1]: 67.33 mg/dL
- CREATINE PHOSPHOKINASE [1]: 414.67 u/L
- CREATININE [1]: 0.19 mg/dL
- GLUCOSE [1]: 149.33 mg/dL
- LACTATE DEHYDROGENASE [1]: 536.83 u/L
- LIPASE [1]: 8.83 u/L
- PHOSPHORUS [1]: 11.13 mg/dL
- POTASSIUM [1]: 6.23 MEQ/L
- SODIUM [1]: 144.42 MEQ/L
- TOTAL BILIRUBIN [1]: 0.18 mg/dL
- TOTAL PROTEIN [1]: 5.57 G/DL
- URIC ACID [1]: 1.23 mg/dL
- ABSOLUTE BASOPHIL [2]: 0 CELLS/uL
- ABSOLUTE EOSINOPHIL [2]: 158.83 CELLS/uL
- ABSOLUTE LYMPHOCYTE [2]: 13517.17 CELLS/uL
- ABSOLUTE MONOCYTE [2]: 352.67 CELLS/uL
- ABSOLUTE SEGMENTED NEUTROPHIL [2]: 1104.67 CELLS/uL
- BASOPHIL [2]: 0%
- EOSINOPHIL [2]: 1%
- ERYTHROCYTE COUNT [2]: 5.73 x10E6/uL
- HEMATOCRIT [2]: 36.85%
- HEMOGLOBIN [2]: 13.67 G/DL
- LEUKOCYTE COUNT [2]: 15.13 x10E3/uL
- LYMPHOCYTE [2]: 89.5%
- MEAN CORPUSCULAR HEMOGLOBIN [2]: 23.87 pg
- MEAN CORPUSCULAR HEMOGLOBIN CONCENTRATION [2]: 37.1 G/DL
- MEAN CORPUSCULAR VOLUME [2]: 64.33 fL
- MONOCYTE [2]: 2.33%
- NEUTROPHIL [2]: 7.17%
- NUCLEATED RED BLOOD CELLS [2]: 0.17 /100WBC
- PLATELET COUNT [2]: 1266 x10E3/uL
- ALANINE AMINOTRANSFERASE [2]: 49.17 u/L
- ALBUMIN [2]: 4.22 G/DL
- ALKALINE PHOSPHATASE [2]: 352.67 u/L
- ASPARTATE AMINOTRANSFERASE [2]: 95.17 u/L
- BLOOD UREA NITROGEN [2]: 18.83 mg/dL
- CARBON DIOXIDE [2]: 25.67 mmol/L
- CHLORIDE [2]: 102.67 MEQ/L
- CHOLESTEROL [2]: 66.83 mg/dL
- CREATINE PHOSPHOKINASE [2]: 550.33 u/L
- CREATININE [2]: 0.23 mg/dL
- GLUCOSE [2]: 186.17 mg/dL
- LACTATE DEHYDROGENASE [2]: 471.33 u/L
- LIPASE [2]: 8.67 u/L
- PHOSPHORUS [2]: 12.3 mg/dL
- POTASSIUM [2]: 6.35 MEQ/L
- SODIUM [2]: 143.57 MEQ/L
- TOTAL BILIRUBIN [2]: 0.18 mg/dL
- TOTAL PROTEIN [2]: 6.05 G/DL
- URIC ACID [2]: 2 mg/dL
- ABSOLUTE BASOPHIL [3]: 0 CELLS/uL
- ABSOLUTE EOSINOPHIL [3]: 119 CELLS/uL
- ABSOLUTE LYMPHOCYTE [3]: 13526 CELLS/uL
- ABSOLUTE MONOCYTE [3]: 339.33 CELLS/uL
- ABSOLUTE SEGMENTED NEUTROPHIL [3]: 1849 CELLS/uL
- BASOPHIL [3]: 0%
- EOSINOPHIL [3]: 1%
- ERYTHROCYTE COUNT [3]: 5.59 x10E6/uL
- HEMATOCRIT [3]: 35.27%
- HEMOGLOBIN [3]: 13.4 G/DL
- LEUKOCYTE COUNT [3]: 15.83 x10E3/uL
- LYMPHOCYTE [3]: 86%
- MEAN CORPUSCULAR HEMOGLOBIN [3]: 24.03 pg
- MEAN CORPUSCULAR HEMOGLOBIN CONCENTRATION [3]: 38 G/DL
- MEAN CORPUSCULAR VOLUME [3]: 63.2 fL
- MONOCYTE [3]: 2%
- NEUTROPHIL [3]: 11%
- NUCLEATED RED BLOOD CELLS [3]: 0.33 /100WBC
- PLATELET COUNT [3]: 1244.67 x10E3/uL
- ALANINE AMINOTRANSFERASE [3]: 51.33 u/L
- ALBUMIN [3]: 4.37 G/DL
- ALKALINE PHOSPHATASE [3]: 431.67 u/L
- ASPARTATE AMINOTRANSFERASE [3]: 102 u/L
- BLOOD UREA NITROGEN [3]: 16.67 mg/dL
- CARBON DIOXIDE [3]: 26.67 mmol/L
- CHLORIDE [3]: 102 MEQ/L
- CHOLESTEROL [3]: 79.67 mg/dL
- CREATINE PHOSPHOKINASE [3]: 558.33 u/L
- CREATININE [3]: 0.23 mg/dL
- GLUCOSE [3]: 150.33 mg/dL
- LACTATE DEHYDROGENASE [3]: 837 u/L
- LIPASE [3]: 9.33 u/L
- PHOSPHORUS [3]: 11.7 mg/dL
- POTASSIUM [3]: 6.65 MEQ/L
- SODIUM [3]: 144.07 MEQ/L
- TOTAL BILIRUBIN [3]: 0.23 mg/dL
- TOTAL PROTEIN [3]: 5.83 G/DL
- URIC ACID [3]: 1.27 mg/dL
